Results on eight compounds are retold here after patent EP4722207A1, “OXOISOINDOLINYL-SUBSTITUTED TETRAHYDROPYRIMIDINEDIONE DERIVATIVE AND USE THEREOF” (Gluetacs Therapeutics (Shanghai) Co., Ltd., priority 2023, dated 2024).

What all share (assay type): cell-based
Holding throughout (conditions): 24 hours of compound treatment, 50 nM and 500 nM

The target in one assay is T1, IKZF1 (Homo sapiens, UniProt Q13422+Q96SW2).
T1 construct: effects of the compounds of the present disclosure on the expression of target proteins in cells; endogenous in cells; host or cells: human PBMCs (hPBMCs)
T1 sequence (Q13422 whole entry): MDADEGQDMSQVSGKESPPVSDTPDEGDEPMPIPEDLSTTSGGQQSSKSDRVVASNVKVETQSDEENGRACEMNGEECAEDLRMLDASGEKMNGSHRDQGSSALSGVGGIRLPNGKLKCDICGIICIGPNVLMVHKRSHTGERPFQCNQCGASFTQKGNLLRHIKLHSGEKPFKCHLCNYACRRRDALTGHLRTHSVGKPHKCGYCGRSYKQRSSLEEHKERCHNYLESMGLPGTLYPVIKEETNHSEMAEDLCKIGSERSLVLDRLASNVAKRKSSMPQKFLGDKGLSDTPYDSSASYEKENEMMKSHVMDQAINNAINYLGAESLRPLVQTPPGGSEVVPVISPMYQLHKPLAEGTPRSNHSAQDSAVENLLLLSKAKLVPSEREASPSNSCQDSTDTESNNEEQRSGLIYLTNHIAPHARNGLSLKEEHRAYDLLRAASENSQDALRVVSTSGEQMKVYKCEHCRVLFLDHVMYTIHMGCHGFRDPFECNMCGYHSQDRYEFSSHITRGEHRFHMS
T1 sequence (Q96SW2 whole entry): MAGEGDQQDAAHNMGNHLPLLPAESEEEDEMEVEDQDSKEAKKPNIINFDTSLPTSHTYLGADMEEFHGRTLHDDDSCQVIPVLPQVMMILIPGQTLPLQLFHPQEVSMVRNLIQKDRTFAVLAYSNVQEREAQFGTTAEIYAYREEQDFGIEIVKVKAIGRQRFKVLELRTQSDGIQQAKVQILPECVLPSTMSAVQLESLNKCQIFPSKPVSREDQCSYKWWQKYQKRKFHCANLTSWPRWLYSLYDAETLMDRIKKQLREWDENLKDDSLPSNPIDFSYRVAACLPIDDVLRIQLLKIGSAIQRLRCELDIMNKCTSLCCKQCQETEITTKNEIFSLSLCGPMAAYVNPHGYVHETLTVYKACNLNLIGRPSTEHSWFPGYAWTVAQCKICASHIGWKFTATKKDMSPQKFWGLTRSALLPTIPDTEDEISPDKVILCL
T1 sequence (Q16531 whole entry partner): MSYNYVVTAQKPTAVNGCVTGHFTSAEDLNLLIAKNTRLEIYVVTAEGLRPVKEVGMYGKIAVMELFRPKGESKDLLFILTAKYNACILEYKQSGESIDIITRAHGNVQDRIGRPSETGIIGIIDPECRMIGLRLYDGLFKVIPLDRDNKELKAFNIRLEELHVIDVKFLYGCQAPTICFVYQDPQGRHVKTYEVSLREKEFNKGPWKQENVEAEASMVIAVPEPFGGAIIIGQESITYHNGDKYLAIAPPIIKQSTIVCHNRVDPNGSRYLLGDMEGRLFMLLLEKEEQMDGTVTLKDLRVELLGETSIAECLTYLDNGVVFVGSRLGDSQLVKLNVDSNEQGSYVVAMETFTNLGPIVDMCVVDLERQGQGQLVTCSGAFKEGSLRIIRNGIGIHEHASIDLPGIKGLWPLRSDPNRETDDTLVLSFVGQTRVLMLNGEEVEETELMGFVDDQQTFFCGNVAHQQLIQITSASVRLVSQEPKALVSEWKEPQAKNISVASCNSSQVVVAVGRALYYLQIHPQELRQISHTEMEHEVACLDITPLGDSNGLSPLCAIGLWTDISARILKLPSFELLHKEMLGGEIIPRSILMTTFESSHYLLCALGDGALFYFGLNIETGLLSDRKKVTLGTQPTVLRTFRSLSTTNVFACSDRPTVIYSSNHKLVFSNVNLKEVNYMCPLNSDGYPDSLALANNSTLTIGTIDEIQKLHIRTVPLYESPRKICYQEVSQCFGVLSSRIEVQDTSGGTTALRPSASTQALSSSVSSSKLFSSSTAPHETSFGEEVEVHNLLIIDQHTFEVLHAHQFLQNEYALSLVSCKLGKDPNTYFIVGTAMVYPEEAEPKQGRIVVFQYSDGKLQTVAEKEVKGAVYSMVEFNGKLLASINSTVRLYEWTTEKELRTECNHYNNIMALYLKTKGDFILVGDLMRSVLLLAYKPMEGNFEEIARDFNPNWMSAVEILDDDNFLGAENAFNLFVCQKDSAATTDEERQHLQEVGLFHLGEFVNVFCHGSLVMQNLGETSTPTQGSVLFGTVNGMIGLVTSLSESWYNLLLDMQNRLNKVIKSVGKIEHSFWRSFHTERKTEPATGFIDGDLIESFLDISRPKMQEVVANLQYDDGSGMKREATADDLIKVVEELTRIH
Nature of the assay: Western-blot assay, substrate protein degradation in hPBMCs: IKZF1.

The next assay addresses T2, CK1α (Homo sapiens, UniProt P48729+Q96SW2).
T2 construct: effects of the compounds of the present disclosure on the expression of target proteins in cells; endogenous in cells; host or cells: human PBMCs (hPBMCs)
Nature of the assay: Western-blot assay, substrate protein degradation in hPBMCs: CK1α.

The target of the next assay is T3, WEE1 (Homo sapiens, UniProt P30291+Q96SW2).
T3 construct: effects of the compounds of the present disclosure on the expression of target proteins in cells; endogenous in cells; host or cells: human PBMCs (hPBMCs)
T3 sequence (P30291 whole entry): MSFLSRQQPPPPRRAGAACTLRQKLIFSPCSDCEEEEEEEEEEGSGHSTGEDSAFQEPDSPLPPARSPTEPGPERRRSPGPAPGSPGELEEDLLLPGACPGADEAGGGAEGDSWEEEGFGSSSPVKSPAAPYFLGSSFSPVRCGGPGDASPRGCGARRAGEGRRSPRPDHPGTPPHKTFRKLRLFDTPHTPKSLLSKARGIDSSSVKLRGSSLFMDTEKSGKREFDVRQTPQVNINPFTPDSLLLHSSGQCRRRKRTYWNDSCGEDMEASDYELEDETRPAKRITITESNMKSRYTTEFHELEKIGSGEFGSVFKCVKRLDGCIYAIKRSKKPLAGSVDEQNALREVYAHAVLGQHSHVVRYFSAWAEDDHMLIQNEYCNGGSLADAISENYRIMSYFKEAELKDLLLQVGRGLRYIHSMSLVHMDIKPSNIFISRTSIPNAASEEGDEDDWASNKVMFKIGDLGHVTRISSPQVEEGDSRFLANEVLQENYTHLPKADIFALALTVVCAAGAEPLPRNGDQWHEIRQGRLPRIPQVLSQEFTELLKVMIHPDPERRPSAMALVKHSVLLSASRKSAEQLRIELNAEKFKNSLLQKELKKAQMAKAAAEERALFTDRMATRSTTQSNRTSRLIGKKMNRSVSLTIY
T3 sequence (Q96SW2 whole entry): as the sequence (Q96SW2 whole entry) above
T3 sequence (Q16531 whole entry partner): as the sequence (Q16531 whole entry partner) above
Nature of the assay: Western-blot assay, substrate protein degradation in hPBMCs: WEE1.

A further assay addresses T4, GSPT1 (Homo sapiens, UniProt P15170+Q96SW2).
T4 construct: effects of the compounds of the present disclosure on the expression of target proteins in cells; endogenous in cells; host or cells: human PBMCs (hPBMCs)
Nature of the assay: Western-blot assay, substrate protein degradation in hPBMCs: GSPT1.

For another assay, the target named is T5, IKZF2 (Homo sapiens, UniProt Q96SW2+Q9UKS7).
T5 construct: effects of the compounds of the present disclosure on the expression of target proteins in cells; endogenous in cells; host or cells: human PBMCs (hPBMCs)
T5 sequence (Q9UKS7 whole entry): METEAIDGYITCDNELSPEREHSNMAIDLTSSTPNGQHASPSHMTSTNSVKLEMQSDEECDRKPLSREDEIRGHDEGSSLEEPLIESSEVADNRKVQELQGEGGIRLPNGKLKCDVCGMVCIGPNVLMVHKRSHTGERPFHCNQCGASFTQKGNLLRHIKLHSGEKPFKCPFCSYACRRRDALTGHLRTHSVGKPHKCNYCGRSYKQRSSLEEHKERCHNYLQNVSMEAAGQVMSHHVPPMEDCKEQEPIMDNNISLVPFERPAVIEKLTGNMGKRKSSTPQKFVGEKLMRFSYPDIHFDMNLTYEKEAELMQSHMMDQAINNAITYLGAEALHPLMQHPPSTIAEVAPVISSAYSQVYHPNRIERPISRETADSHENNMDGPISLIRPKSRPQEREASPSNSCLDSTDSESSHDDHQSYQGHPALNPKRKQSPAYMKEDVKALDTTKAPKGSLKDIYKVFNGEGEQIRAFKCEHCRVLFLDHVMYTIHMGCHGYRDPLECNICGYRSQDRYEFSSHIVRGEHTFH
T5 sequence (Q96SW2 whole entry): as the sequence (Q96SW2 whole entry) above
T5 sequence (Q16531 whole entry partner): as the sequence (Q16531 whole entry partner) above
Nature of the assay: Western-blot assay, substrate protein degradation in hPBMCs: IKZF2.

The target of another assay is T6, IKZF3 (Homo sapiens, UniProt Q96SW2+Q9UKT9).
T6 construct: effects of the compounds of the present disclosure on the expression of target proteins in cells; endogenous in cells; host or cells: human PBMCs (hPBMCs)
T6 sequence (Q9UKT9 whole entry): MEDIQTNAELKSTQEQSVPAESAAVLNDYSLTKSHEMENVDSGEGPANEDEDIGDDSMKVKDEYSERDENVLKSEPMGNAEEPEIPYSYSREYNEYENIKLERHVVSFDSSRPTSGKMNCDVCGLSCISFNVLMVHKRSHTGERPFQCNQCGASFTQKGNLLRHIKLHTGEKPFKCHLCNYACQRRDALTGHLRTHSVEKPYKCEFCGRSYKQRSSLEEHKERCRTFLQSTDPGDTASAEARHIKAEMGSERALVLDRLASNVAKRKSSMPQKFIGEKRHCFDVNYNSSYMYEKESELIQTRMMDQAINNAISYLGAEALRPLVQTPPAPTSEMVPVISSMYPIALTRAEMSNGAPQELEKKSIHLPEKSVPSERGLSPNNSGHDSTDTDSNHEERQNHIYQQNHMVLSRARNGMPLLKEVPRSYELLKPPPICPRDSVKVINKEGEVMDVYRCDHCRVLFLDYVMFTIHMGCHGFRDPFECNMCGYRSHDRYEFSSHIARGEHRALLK
T6 sequence (Q96SW2 whole entry): as the sequence (Q96SW2 whole entry) above
T6 sequence (Q16531 whole entry partner): as the sequence (Q16531 whole entry partner) above
Nature of the assay: Western-blot assay, substrate protein degradation in hPBMCs: IKZF3.

The structures appear in SMILES notation.

T2 sequence (P48729 whole entry): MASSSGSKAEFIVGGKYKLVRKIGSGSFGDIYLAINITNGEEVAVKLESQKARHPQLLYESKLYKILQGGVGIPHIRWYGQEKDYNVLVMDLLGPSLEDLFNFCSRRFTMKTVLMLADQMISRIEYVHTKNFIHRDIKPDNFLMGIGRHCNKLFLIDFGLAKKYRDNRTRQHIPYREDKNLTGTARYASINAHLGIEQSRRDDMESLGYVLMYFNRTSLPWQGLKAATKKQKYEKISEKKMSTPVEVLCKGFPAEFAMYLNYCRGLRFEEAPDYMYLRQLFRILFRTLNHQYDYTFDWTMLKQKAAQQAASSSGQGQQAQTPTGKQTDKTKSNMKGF
T2 sequence (Q96SW2 whole entry): as the sequence (Q96SW2 whole entry) above
T2 sequence (Q16531 whole entry partner): as the sequence (Q16531 whole entry partner) above

Turning to `O=C1CCN(N2Cc3cc(CN4CCc5sccc5C4)ccc3C2=O)C(=O)N1` [GT-07720, 1-(5-((6,7-dihydrothieno[3,2-c]pyridin-5(4H)-yl)methyl)-1-oxoisoindolin-2-yl)dihydropyrimidine-2,4(1H,3H)-dione], on IKZF1, the “substrate protein remaining % IKZF1” value is “A (0% ≤ substrate protein remaining % ≤ 80%)”. The “substrate protein remaining % CK1α” value at CK1α is on record as “A (0% ≤ substrate protein remaining % ≤ 80%)”. Also, at WEE1, the “substrate protein remaining % WEE1” value is listed as “A (0% ≤ substrate protein remaining % ≤ 80%)”. For the same compound, the “substrate protein remaining % GSPT1” value on GSPT1 was “A (0% ≤ substrate protein remaining % ≤ 80%)”. On IKZF2, the “substrate protein remaining % IKZF2” value is on record as “A (0% ≤ substrate protein remaining % ≤ 80%)”. The “substrate protein remaining % IKZF3” value at IKZF3 is “A (0% ≤ substrate protein remaining % ≤ 80%)”.
Turning to `O=C1CCN(N2Cc3cc(CN4CCN(Cc5ccc(C67CC8CC(CC(C8)C6)C7)cc5)CC4)ccc3C2=O)C(=O)N1` [GT-07721, 1-(5-((4-(4-((3r,5r,7r)-adamantan-1-yl)benzyl)piperazin-1-yl)methyl)-1-oxoisoindolin-2-yl)dihydropyrimidine-2,4(1H,3H)-dione], the “substrate protein remaining % IKZF1” value on IKZF1 is given as “A (0% ≤ substrate protein remaining % ≤ 80%)”. Also, the “substrate protein remaining % CK1α” value at CK1α is “A (0% ≤ substrate protein remaining % ≤ 80%)”. The “substrate protein remaining % WEE1” value at WEE1 is “A (0% ≤ substrate protein remaining % ≤ 80%)”. On GSPT1, the “substrate protein remaining % GSPT1” value is listed as “A (0% ≤ substrate protein remaining % ≤ 80%)”. Besides, the “substrate protein remaining % IKZF2” value at IKZF2 is recorded as “A (0% ≤ substrate protein remaining % ≤ 80%)”. The “substrate protein remaining % IKZF3” value on IKZF3 is listed as “A (0% ≤ substrate protein remaining % ≤ 80%)”.
`O=C1CCN(N2C(=O)c3ccc(CN4CCN(Cc5ccc(C67CC8CC(CC(C8)C6)C7)cc5)CC4)cc3C2=O)C(=O)N1` [GT-07722, 5-((4-(4-((3r,5r,7r)-adamantan-1-yl)benzyl)piperazin-1-yl)methyl)-2-(2,4-dioxotetrahydropyrimidin-1(2H)-yl)isoindoline-1,3-dione]: the “substrate protein remaining % IKZF1” value on IKZF1 was “B (80%< substrate protein remaining %≤ 100%)”. Besides, the “substrate protein remaining % CK1α” value at CK1α is on record as “A (0% ≤ substrate protein remaining % ≤ 80%)”. The “substrate protein remaining % WEE1” value on WEE1 is on record as “A (0% ≤ substrate protein remaining % ≤ 80%)”. In addition, the “substrate protein remaining % GSPT1” value at GSPT1 is listed as “A (0% ≤ substrate protein remaining % ≤ 80%)”. Also, the “substrate protein remaining % IKZF2” value at IKZF2 is reported as “A (0% ≤ substrate protein remaining % ≤ 80%)”. Also, the “substrate protein remaining % IKZF3” value on IKZF3 is “A (0% ≤ substrate protein remaining % ≤ 80%)”.
Turning to `NCc1ccc2c(c1)C(=O)N(N1CCC(=O)NC1=O)C2=O` [GT-07968, 5-(aminomethyl)-2-(2,4-dioxotetrahydropyrimidin-1(2H)-yl)isoindoline-1,3-dione], at IKZF1, the “substrate protein remaining % IKZF1” value is reported as “A (0% ≤ substrate protein remaining % ≤ 80%)”. Also, at CK1α, the “substrate protein remaining % CK1α” value was “A (0% ≤ substrate protein remaining % ≤ 80%)”. In addition, the “substrate protein remaining % WEE1” value at WEE1 is on record as “A (0% ≤ substrate protein remaining % ≤ 80%)”. The “substrate protein remaining % GSPT1” value on GSPT1 is on record as “B (80%< substrate protein remaining %≤ 100%)”. The “substrate protein remaining % IKZF2” value at IKZF2 is reported as “A (0% ≤ substrate protein remaining % ≤ 80%)”. Besides, the “substrate protein remaining % IKZF3” value on IKZF3 is on record as “A (0% ≤ substrate protein remaining % ≤ 80%)”.
On to `O=C1CCN(N2C(=O)c3ccc(CN4CC=C(c5ncnc6scc(-c7ccccc7)c56)CC4)cc3C2=O)C(=O)N1` [GT-08431, 2-(2,4-dioxotetrahydropyrimidin-1(2H)-yl)-5-((4-(5-phenylthieno[2,3-d]pyrimidin-4-yl)-3,6-dihydropyridin-1(2H)-yl)methyl)isoindoline-1,3-dione], for which the “substrate protein remaining % IKZF1” value on IKZF1 was “B (80%< substrate protein remaining %≤ 100%)”. At CK1α, the “substrate protein remaining % CK1α” value is on record as “B (80%< substrate protein remaining %≤ 100%)”. The “substrate protein remaining % WEE1” value on WEE1 is listed as “A (0% ≤ substrate protein remaining % ≤ 80%)”. On GSPT1, the “substrate protein remaining % GSPT1” value is “B (80%< substrate protein remaining %≤ 100%)”. For the same compound, the “substrate protein remaining % IKZF2” value at IKZF2 is “A (0% ≤ substrate protein remaining % ≤ 80%)”. The “substrate protein remaining % IKZF3” value on IKZF3 is recorded as “B (80%< substrate protein remaining %≤ 100%)”.
In the case of `Cc1nc(C2=CCN(Cc3ccc4c(c3)C(=O)N(N3CCC(=O)NC3=O)C4=O)CC2)c2c3c(sc2n1)CCC3` [GT-08435, 2-(2,4-dioxotetrahydropyrimidin-1(2H)-yl)-5-((4-(2-methyl-6,7-dihydro-5H-cyclopenta[4,5]thieno[2,3-d]pyrimidin-4-yl)-3,6-dihydropyridin-1(2H)-yl)methyl)isoindoline-1,3-dione], on IKZF1, the “substrate protein remaining % IKZF1” value is on record as “A (0% ≤ substrate protein remaining % ≤ 80%)”. Besides, the “substrate protein remaining % CK1α” value at CK1α is “B (80%< substrate protein remaining %≤ 100%)”. Moreover, at WEE1, the “substrate protein remaining % WEE1” value is “A (0% ≤ substrate protein remaining % ≤ 80%)”. Besides, the “substrate protein remaining % GSPT1” value on GSPT1 is “A (0% ≤ substrate protein remaining % ≤ 80%)”. Further, the “substrate protein remaining % IKZF2” value on IKZF2 is “B (80%< substrate protein remaining %≤ 100%)”. The “substrate protein remaining % IKZF3” value on IKZF3 is recorded as “A (0% ≤ substrate protein remaining % ≤ 80%)”.
In the case of `O=C1CCN(N2Cc3cc(CN4CCN(c5nc(Cl)nc6ccsc56)CC4)ccc3C2=O)C(=O)N1` [GT-08444, 1-(5-((4-(2-chlorothieno[3,2-d]pyrimidin-4-yl)piperazin-1-yl)methyl)-1-oxoisoindolin-2-yl)dihydropyrimidine-2,4(1H,3H)-dione], the “substrate protein remaining % IKZF1” value on IKZF1 is “B (80%< substrate protein remaining %≤ 100%)”. In addition, on CK1α, the “substrate protein remaining % CK1α” value was “B (80%< substrate protein remaining %≤ 100%)”. Further, the “substrate protein remaining % WEE1” value at WEE1 is “A (0% ≤ substrate protein remaining % ≤ 80%)”. For the same compound, the “substrate protein remaining % GSPT1” value on GSPT1 was “B (80%< substrate protein remaining %≤ 100%)”. The “substrate protein remaining % IKZF2” value on IKZF2 is “B (80%< substrate protein remaining %≤ 100%)”. For the same compound, at IKZF3, the “substrate protein remaining % IKZF3” value is recorded as “B (80%< substrate protein remaining %≤ 100%)”.
As to `O=C1CCN(N2C(=O)c3ccc(CN4CCN(c5nc(N6CCOCC6)nc6c5SCC6)CC4)cc3C2=O)C(=O)N1` [GT-08450, 2-(2,4-dioxotetrahydropyrimidin-1(2H)-yl)-5-((4-(2-morpholino-6,7-dihydrothieno[3,2-d]pyrimidin-4-yl)piperazin-1-yl)methyl)isoindoline-1,3-dione], the “substrate protein remaining % IKZF1” value on IKZF1 is on record as “B (80%< substrate protein remaining %≤ 100%)”. Also, the “substrate protein remaining % CK1α” value at CK1α was “B (80%< substrate protein remaining %≤ 100%)”. Also, on WEE1, the “substrate protein remaining % WEE1” value was “B (80%< substrate protein remaining %≤ 100%)”. Besides, the “substrate protein remaining % GSPT1” value at GSPT1 was “A (0% ≤ substrate protein remaining % ≤ 80%)”. In addition, on IKZF2, the “substrate protein remaining % IKZF2” value is recorded as “B (80%< substrate protein remaining %≤ 100%)”. The “substrate protein remaining % IKZF3” value at IKZF3 is “B (80%< substrate protein remaining %≤ 100%)”.
